Results published in ChEMBL document CHEMBL6177981, “Bardoxolone Derivatives as Novel Pseudo-Natural Necroptosis Inhibitors by Destabilizing HSP90 Client Proteins” (J Med Chem, 2025).
Active and inactive are the calls of the source.

Experiments:
HT-29 [1] = assay: Downregulation of MLKL protein level in human HT-29 cell supernatant at 6 uM measured after 9 hrs by Western blot analysis; assay type: functional, cell-based
HT-29 [2] = assay: Downregulation of RIPK3 protein level in human HT-29 cells at 6 uM preincubated with NH4Cl for 2 hrs followed by compound addition and measured after 9 hrs by Western blot analysis; assay type: functional, cell-based
HT-29 [3] = assay: Downregulation of RIPK3 protein level in human HT-29 cell supernatant at 6 uM measured after 9 hrs by Western blot analysis; assay type: functional, cell-based
[4] = Tmax in Sprague-Dawley rat at 2 mg/kg, iv measured after 24 hrs by LC-MS/MS analysis; assay type: ADME, organism-based; conditions: in vivo
[5] = Acute toxicity in male C57BL/6J mouse assessed as hemorrhage in liver at 2 g/Kg, IG measured after 72 hrs by H and E staining based analysis; assay type: tissue-based; conditions: in vivo, po, 2000 mg/kg
HT-29 [6] = assay: Downregulation of RIPK1 protein level in human HT-29 cells at 6 uM preincubated with Z-VAD-FMK for 2 hrs followed by compound addition and measured after 9 hrs by Western blot analysis; assay type: functional, cell-based
HT-29 [7] = assay: Anti-necroptotic activity in TCZ-induced human HT-29 cells assessed as increase in cell viability at 1.25 uM preincubated with compound followed by Z-VAD-FMK, cycloheximide and TNFalpha addition and measured after 16 hrs by CellTiter-Lumi luminescent cell viability assay relative to control; assay type: functional
[8] = Acute toxicity in male C57BL/6J mouse assessed as inflammatory cell infiltration in spleen at 2 g/Kg, IG measured after 72 hrs by H and E staining based analysis; assay type: tissue-based; conditions: in vivo, po, 2000 mg/kg
HT-29 [9] = assay: Downregulation of RIPK3 protein level in human HT-29 cells at 6 uM preincubated with MLN4924 for 2 hrs followed by compound addition and measured after 9 hrs by Western blot analysis; assay type: functional, cell-based
Mus musculus [10] = assay: (§1) Anti-necroptotic activity in TNFalpha/Z-VAD-FMK induced SIRS male C57BL/6J mouse model assessed as reduction in IL6 in lung at 5 to 10 mg/kg, po pre-administered with compound via gavage for 2 hrs followed by […] of Z-VAD-FMK stimulation for 15 mins with subsequent TNF-alpha stimulation for 1 hrs and re-current […] of Z-VAD-FMK stimulation and measured after 8 hrs post SIRS induction by ELISA; assay type: functional, organism-based; conditions: dose 5-10 mg/kg, time 10.0 hrs
[11] = Acute toxicity in male C57BL/6J mouse assessed as effect on ALT level at 2 g/Kg, IG measured after 72 hrs; conditions: in vivo, po, 2000 mg/kg
[12] = Acute toxicity in male C57BL/6J mouse assessed as hemorrhage in spleen at 2 g/Kg, IG measured after 72 hrs by H and E staining based analysis; assay type: tissue-based; conditions: in vivo, po, 2000 mg/kg
HeLa = assay: Inhibition of RIPK1 protein expression in RIPK3-deficient human HeLa cells at 0.75 to 6 uM incubated for 9 hrs by Western blot analysis; assay type: functional, cell-based; conditions: dose 0.75-6 µM
[13] = Acute toxicity in male C57BL/6J mouse assessed as inflammatory cell infiltration in lung at 2 g/Kg, IG measured after 72 hrs by H and E staining based analysis; assay type: tissue-based; conditions: in vivo, po, 2000 mg/kg
HT-29 [14] = assay: Anti-necroptotic activity in TSZ-induced human HT-29 cells assessed as increase in cell viability preincubated with Z-VAD-FMK and SM164 for 30 mins followed by TNFalpha stimulation for 12 hrs and measured after compound addition by CellTiter-Lumi luminescent cell viability assay; assay type: functional, cell-based
Mus musculus [15] = assay: as §1, with “IL-1beta” for “IL6”, “kidney” for “lung”; assay type: functional, organism-based; conditions: dose 5-10 mg/kg, time 10.0 hrs

Cn1ccc(-c2ccc(NC(=O)[C@]34CCC(C)(C)C[C@H]3[C@H]3C(=O)C=C5[C@@]6(C)C=C(C#N)C(=O)C(C)(C)[C@@H]6CC[C@@]5(C)[C@]3(C)CC4)cc2)n1
4.98 min: Tmax [4]
active: Activity (HT-29 [1]) | Activity (HT-29 [2]) | Activity (HT-29 [3]) | Activity (HT-29 [6]) | Activity (HT-29 [9]) | Activity (Mus musculus [10]) | inhibition (HeLa) | Activity (Mus musculus [15])
1380 nM: EC50 (HT-29 [14])
Non-toxic: Activity [5] | Activity [8] | Activity [11] | Activity [12] | Activity [13]
100%: Activity (HT-29 [7])
